Here are results for 1 compound from patent publication US20260373156A1, “CANCER TREATMENTS USING MTA-COOPERATIVE PRMT5 INHIBITORS” (AMGEN INC., priority 2022, published 2026).

In assay [1] the test system is H292 cells. Description: CellTiter-Glo viability and CalcuSyn synergy, PRMT5 inhibitor + palbociclib, 6 days. Conditions: h292 cells, 8640 min, 0.1212 µM.
In assay [2] the test system is MIAPACA2T2 cells. Description: CellTiter-Glo viability and CalcuSyn synergy, PRMT5 inhibitor + trametinib, 6 days.
For assay [3], the system named is MIAPACA2T2 cells. Description: CellTiter-Glo viability and CalcuSyn synergy, PRMT5 inhibitor + sotorasib, 6 days. Conditions: miapaca2t2 cells, 8640 min, 0.4374 µM.
In assay [4] the test system is LU99 NSCLC xenografts. Conditions: mouse, in vivo.
Assay [5] concerns HCC1395 cells. Description: CellTiter-Glo viability and CalcuSyn synergy, PRMT5 inhibitor + olaparib, 6 days. Particulars: hcc1395 cells, 8640 min, 0.7673 µM.
Assay [6] relates to A549 cells. Description: CellTiter-Glo viability and CalcuSyn synergy, PRMT5 inhibitor + palbociclib, 6 days. Conditions: a549 cells, 8640 min, 0.437382 µM.
Assay [7] concerns LU99 cells. Description: CellTiter-Glo viability and CalcuSyn synergy, PRMT5 inhibitor + sotorasib, 6 days.
For assay [8], the system named is PSN1 cells. Description: CellTiter-Glo viability and CalcuSyn synergy, PRMT5 inhibitor + KIF18A, 6 days. Particulars: psn1 cells, 8640 min, 0.0767 µM.
Assay [9] deals with H1650 cells. In kind it is cell-based. Particulars: 8640 min, 0.44 µM. As for the experimental part: A MTAP-null NSCLC cancer cell line (H1650) was treated with the combination of Compound G and osimertinib for 6 days. Compound G was performed at a 1.9-fold dilution series and the combination partner was performed at 1.2 to 1.7 fold dilution series to create an 8×10 dose matrix including DMSO-only controls. Cell viability was measured by the CellTiter-Glo Luminescence assay. Raw luminescent values were converted to fraction affected (Fa) with the following equation: […]
(§1) Synergy analysis was performed using the CalcuSyn software to determine CI scores based on the drug concentrations used and corresponding Fa values.

For assay [10], the system named is A549 cells. Description: CellTiter-Glo viability and CalcuSyn synergy, PRMT5 inhibitor + trametinib, 6 days.
The subject of assay [11] is LU99 NSCLC xenografts. Particulars: mouse, in vivo. The source holds these as a separate data set.
Assay [12] has as its system A549 cells. Description: CellTiter-Glo viability and CalcuSyn synergy, PRMT5 inhibitor + KRAS G12X inhibitor, 6 days. Particulars: a549 cells, 8640 min, 0.4374 µM.
Assay [13] concerns LU5268 NSCLC xenografts. Particulars: mouse, in vivo.
For assay [14], the system named is H1650 cells. Format: cell-based. As for the experimental part: A MTAP-null NSCLC cancer cell line (H1650) was treated with the combination of Compound G and erlotinib for 6 days. Compound G was performed at a 1.9-fold dilution series and the combination partner was performed at 1.2 to 1.7 fold dilution series to create an 8×10 dose matrix including DMSO-only controls. Cell viability was measured by the CellTiter-Glo Luminescence assay. Raw luminescent values were converted to fraction affected (Fa) with the following equation: […]
as §1

Assay [15] has as its system MiaPaCa2 PDAC xenografts. Also on record: species or system Female NOD/SCID mice. Conditions: mouse, in vivo.
Protocol: FIG. 6A: Mice were implanted with LU99 (NSCLC CDX) tumors, FIG. 6B: LU5268 (NSCLC PDX) tumors. FIG. 6C: MiaPaCa2 (PDAC CDX) tumors. Vehicle, Compound G, and sotorasib were dosed as indicated. Data represent mean±SD, n=10 for each group.
10 Female NOD/SCID mice were implanted with LU99 NSCLC, LU5268 NSCLC or MisPaCa2 PDAC tumor xenografts. Mean tumor volumes for each grouping were between 100-200 mm^3. Mice were allocated to the four different study groups by tumor volume and dosing was initiated with Vehicle, Compound G (100 mg/kg), sotorasib (100 mg/kg) orally once daily or a combination of Compound G (100 mg/kg) with sotorasib (100 mg/kg). Plotted data represents the TGI (tumor growth inhibition), n=10 for each group.
Assay [16] has as its system MIAPACA2T2 cells. Description: CellTiter-Glo viability and CalcuSyn synergy, PRMT5 inhibitor + KIF18A, 6 days.

Values joined by “and” are separate entries in the source; they are usually repeats but may differ in a detail not shown here. Equal values may be shown once. Read-outs that look alike come from different tables or passages of the source.

Take `Nc1nc2cnc(C(=O)N3CCOC[C@@H]3c3ccc(C(F)(F)F)cc3)cc2c2c1COC2` [Compound G]: the “Combination Fa” value in [1] is 0.8154 and 0.7885 and 0.7925 and 0.7748 and 0.7116 and 0.8564 and 0.824; in [2] (miapaca2t2 cells, 8640 min, 0.83102 µM), 0.792 and 0.69 and 0.63 and 0.583 and 0.551 and 0.868 and 0.85; in assay [3] it was 0.818 and 0.785 and 0.712 and 0.633 and 0.519 and 0.829 and 0.84; in assay [5], 0.6464 and 0.5971 and 0.5852 and 0.5488 and 0.55 and 0.7334 and 0.6661; in assay [6] it was 0.717 and 0.713 and 0.732 and 0.683 and 0.682 and 0.86 and 0.735; in assay [7] (lu99 cells, 8640 min, 0.1458 µM), 0.817 and 0.821 and 0.794 and 0.804 and 0.787 and 0.825. Moreover, the “Combination Fa” value in [8] was 0.858 and 0.868 and 0.837 and 0.811 and 0.781 and 0.923 and 0.86; in assay [9], 0.74 and 0.73 and 0.69 and 0.67 and 0.66 and 0.88 and 0.76; in assay [10] (a549 cells, 8640 min, 0.4374 µM), 0.8494 and 0.7817 and 0.7499 and 0.6788 and 0.6495 and 0.894 and 0.8631; in assay [12], 0.8549 and 0.7807 and 0.755 and 0.7181 and 0.6897 and 0.833 and 0.8551; in [14] (h1650 cells, 8640 min, 0.23 µM), 0.73 and 0.67 and 0.64 and 0.59 and 0.79 and 0.75; in assay [16] (miapaca2t2 cells, 8640 min, 0.437381 µM), 0.7856 and 0.6938 and 0.6123 and 0.4815 and 0.4538 and 0.85 and 0.8122. For the same compound, the “Computed CI value” is 0.579 and 0.774 and 0.806 and 0.84 and 0.868 and 0.784 and 0.557 in assay [2]; 0.276 and 0.234 and 0.289 and 0.249 and 0.281 and 0.424 and 0.294 in assay [7]; 0.276 and 0.365 and 0.349 and 0.48 and 0.512 and 0.43 and 0.384 in [10]; 0.40 and 0.29 and 0.34 and 0.35 and 0.52 and 0.48 in assay [14]; 0.561 and 0.6 and 0.594 and 0.774 and 0.68 and 1.044 and 0.802 in assay [16]. Also, in [4], the anti-tumor activity result was “significant anti-tumor activity versus either single agent alone”. Besides, the tumor growth inhibition entry in assay [11], in assay [13] and in assay [15] was “significantly inhibits tumor growth” each time.
